Here are results for 14 compounds from PubChem BioAssay AID216 (DTP/NCI, 2004).

Several values for one entry are separate records, joined by “and”; a condition that tells them apart may be missing. Equal values may be shown once. Inconclusive results and toxic doses are left out.

The subject of the assay is BDF1 mice, P288 leukemia ip, survival T/C. Kind of assay: NCI In Vivo Anticancer Drug Screen. Data for tumor model P288 Lymphocytic Leukemia (intraperitoneal) in B6D2F1 (BDF1) mice. As to conditions: higher = longer survival. The method, then: The antitumor activity of compounds was measured in mice bearing transplantable tumors. Survival or tumor size were measured and the results are expressed as the measurement made in the treated group (T) divided by the measurement made in the vehicle treated control group (C). The tumor model used in this assay is P288 Lymphocytic Leukemia (intraperitoneal) in B6D2F1 (BDF1) mice

Setting [1] is: endpoint: survival time, mean or median, dose: 125.0 mg/kg/injection, schedule: Q01DX Z (sc), vehicle: steriod suspending solution.
[2] abbreviates: endpoint: survival time, mean or median, dose: 250.0 mg/kg/injection, schedule: Q01DX Z (sc), vehicle: steriod suspending solution.
[3] abbreviates: endpoint: survival time, mean or median, dose: 10.0 mg/kg/injection, schedule: Q01DX010 (ip), vehicle: saline.
[4] abbreviates: endpoint: survival time, mean or median, dose: 12.5 mg/kg/injection, schedule: Q01DX Z (ip), vehicle: water.
Where [5] appears, read: endpoint: survival time, mean or median, dose: 20.0 mg/kg/injection, schedule: Q01DX010 (ip), vehicle: saline.
Setting [6] is: endpoint: survival time, mean or median, dose: 25.0 mg/kg/injection, schedule: Q01DX Z (ip), vehicle: water.
Setting [7] is: endpoint: survival time, mean or median, dose: 40.0 mg/kg/injection, schedule: Q01DX010 (ip), vehicle: saline.
Setting [8] is: endpoint: survival time, mean or median, dose: 125.0 mg/kg/injection, schedule: Q01DX Z (ip), vehicle: carboxymethylcellulose (CMC).
[9] abbreviates: endpoint: survival time, mean or median, dose: 25.0 mg/kg/injection, schedule: Q01DX010 (ip), vehicle: saline.
Setting [10] is: endpoint: survival time, mean or median, dose: 50.0 mg/kg/injection, schedule: Q01DX010 (ip), vehicle: saline.
The mark [11] stands for this setting: endpoint: survival time, mean or median, dose: 100.0 mg/kg/injection, schedule: Q01DX010 (ip), vehicle: saline.
[12] abbreviates: endpoint: survival time, mean or median, dose: 200.0 mg/kg/injection, schedule: Q01DX010 (ip), vehicle: saline.
Setting [13] is: endpoint: survival time, mean or median, dose: 16.0 mg/kg/injection, schedule: Q01DX Z (ip), vehicle: carboxymethylcellulose (CMC).
Where [14] appears, read: endpoint: survival time, mean or median, dose: 62.5 mg/kg/injection, schedule: Q01DX Z (ip), vehicle: carboxymethylcellulose (CMC).

In the case of `CC/C(=C(/CC)c1ccc(O)cc1)c1ccc(O)cc1`, the T/C is, setting by setting: (endpoint: survival time, mean or median, dose: 1.0 mg/kg/injection, schedule: Q01DX Z (sc), vehicle: steriod suspending solution) 100 % of control; (endpoint: survival time, mean or median, dose: 2.0 mg/kg/injection, schedule: Q01DX Z (sc), vehicle: steriod suspending solution) 103 % of control; (endpoint: survival time, mean or median, dose: 4.0 mg/kg/injection, schedule: Q01DX Z (sc), vehicle: steriod suspending solution) 97 % of control; (endpoint: survival time, mean or median, dose: 8.0 mg/kg/injection, schedule: Q01DX Z (sc), vehicle: steriod suspending solution) 118 % of control; (endpoint: survival time, mean or median, dose: 12.5 mg/kg/injection, schedule: Q01DX010 (sc), vehicle: steriod suspending solution) 100 % of control; (endpoint: survival time, mean or median, dose: 16.0 mg/kg/injection, schedule: Q01DX Z (sc), vehicle: steriod suspending solution) 118 % of control. Besides, the T/C reads like this: (endpoint: survival time, mean or median, dose: 25.0 mg/kg/injection, schedule: Q01DX010 (sc), vehicle: steriod suspending solution) 106 % of control; (endpoint: survival time, mean or median, dose: 31.0 mg/kg/injection, schedule: Q01DX Z (sc), vehicle: steriod suspending solution) 103 % of control; (endpoint: survival time, mean or median, dose: 50.0 mg/kg/injection, schedule: Q01DX010 (sc), vehicle: steriod suspending solution) 112 % of control and 121 % of control; (endpoint: survival time, mean or median, dose: 62.0 mg/kg/injection, schedule: Q01DX Z (sc), vehicle: steriod suspending solution) 97 % of control; (endpoint: survival time, mean or median, dose: 100.0 mg/kg/injection, schedule: Q01DX010 (sc), vehicle: steriod suspending solution) 114 % of control and 100 % of control; under setting [1], 91 % of control. Moreover, the T/C under setting [2] was 101 % of control.

`CN1c2c(nc(N)[nH]c2=O)NCC1CCNc1ccc(C(=O)NC(CCC(=O)O)C(=O)O)cc1` (configuration not stated): the T/C (endpoint: median survival time, dose: 6.25 mg/kg/injection, schedule: Q01DX009 (ip), vehicle: other) is 104 % of control; the T/C (endpoint: median survival time, dose: 12.5 mg/kg/injection, schedule: Q01DX009 (ip), vehicle: other) was 104 % of control; the T/C (endpoint: median survival time, dose: 25.0 mg/kg/injection, schedule: Q01DX009 (ip), vehicle: other) was 108 % of control; the T/C (endpoint: median survival time, dose: 50.0 mg/kg/injection, schedule: Q01DX009 (ip), vehicle: other) was 116 % of control; the T/C (endpoint: median survival time, dose: 400.0 mg/kg/injection, schedule: Q01DX009 (ip), vehicle: other) is 162 % of control; the T/C (endpoint: median survival time, dose: 800.0 mg/kg/injection, schedule: Q01DX009 (ip), vehicle: other) is 100 % of control.

Regarding `C[C@]12CCC(=O)C[C@H]1CC[C@@H]1[C@@H]2CC[C@@]2(C)[C@H]1CC[C@]2(C)O`, the T/C was 97 % of control (endpoint: survival time, mean or median, dose: 62.5 mg/kg/injection, schedule: Q01DX Z (sc), vehicle: steriod suspending solution); 98 % of control under setting [1]; 109 % of control and 92 % of control under setting [2]; 104 % of control and 100 % of control (endpoint: survival time, mean or median, dose: 500.0 mg/kg/injection, schedule: Q01DX Z (sc), vehicle: steriod suspending solution); 101 % of control (endpoint: survival time, mean or median, dose: 1000.0 mg/kg/injection, schedule: Q01DX Z (sc), vehicle: steriod suspending solution).

Take `C[C@@H]1C[C@@H]([C@H](O)CC2CC(=O)NC(=O)C2)C(=O)[C@@H](C)C1`: the T/C was 94 % of control under setting [3]; 94 % of control under setting [4]; 94 % of control under setting [5]; 98 % of control under setting [6]; 105 % of control under setting [7].

On to `CC[C@]1(O)C[C@H]2CN(CCc3c([nH]c4ccccc34)[C@@](C(=O)OC)(c3cc4c(cc3OC)N(C=O)[C@H]3[C@@](O)(C(=O)OC)[C@H](OC(C)=O)[C@]5(CC)C=CCN6CC[C@]43[C@@H]65)C2)C1`, for which the T/C runs as follows: (endpoint: survival time, mean or median, dose: 0.06 mg/kg/injection, schedule: Q01DX Z (ip), vehicle: water) 102 % of control; (endpoint: survival time, mean or median, dose: 0.12 mg/kg/injection, schedule: Q01DX Z (ip), vehicle: water) 109 % of control; (endpoint: survival time, mean or median, dose: 0.25 mg/kg/injection, schedule: Q01DX Z (ip), vehicle: water) 116 % of control; (endpoint: survival time, mean or median, dose: 0.5 mg/kg/injection, schedule: Q01DX Z (ip), vehicle: water) 120 % of control and 101 % of control.

As to `Nc1nc2n[nH]nc2c(=O)[nH]1`, the T/C was 111 % of control (endpoint: survival time, mean or median, dose: 12.5 mg/kg/injection, schedule: Q01DX Z (ip), vehicle: other); 100 % of control (endpoint: survival time, mean or median, dose: 25.0 mg/kg/injection, schedule: Q01DX010 (ip), vehicle: alkali diluted with saline); 152 % of control and 183 % of control (endpoint: survival time, mean or median, dose: 100.0 mg/kg/injection, schedule: Q01DX Z (ip), vehicle: other); 195 % of control (endpoint: survival time, mean or median, dose: 200.0 mg/kg/injection, schedule: Q01DX Z (ip), vehicle: other).

On to `CN(C)[C@@H]1C(=O)C(C(N)=O)=C(O)[C@@]2(O)C(=O)C3=C(O)c4c(O)cccc4C[C@H]3C[C@@H]12`, for which the T/C (endpoint: survival time, mean or median, dose: 7.5 mg/kg/injection, schedule: Q01DX010 (ip), vehicle: saline) was 94 % of control; the T/C (endpoint: survival time, mean or median, dose: 15.0 mg/kg/injection, schedule: Q01DX010 (ip), vehicle: saline) is 105 % of control and 94 % of control; the T/C (endpoint: survival time, mean or median, dose: 30.0 mg/kg/injection, schedule: Q01DX010 (ip), vehicle: saline) is 122 % of control and 100 % of control; the T/C (endpoint: survival time, mean or median, dose: 60.0 mg/kg/injection, schedule: Q01DX010 (ip), vehicle: saline) was 94 % of control and 100 % of control.

As for `CN(C)c1nc(N(C)C)nc(N(C)C)n1`, the T/C by setting is: (endpoint: survival time, mean or median, dose: 75.0 mg/kg/injection, schedule: Q01DX010 (ip), vehicle: saline) 90 % of control; under setting [8], 97 % of control.

For the compound `CS(=O)(=O)OCC(O)C(O)C(O)C(O)COS(C)(=O)=O` (configuration not stated), the T/C is, setting by setting: under setting [9], 100 % of control; under setting [10], 114 % of control and 94 % of control; under setting [11], 111 % of control and 100 % of control; under setting [12], 105 % of control and 100 % of control; (endpoint: survival time, mean or median, dose: 400.0 mg/kg/injection, schedule: Q01DX010 (ip), vehicle: saline) 114 % of control.

With `COS(C)(=O)=O`, the T/C (endpoint: survival time, mean or median, dose: 12.5 mg/kg/injection, schedule: Q01DX010 (ip), vehicle: saline) is 100 % of control; the T/C under setting [4] is 109 % of control; the T/C under setting [9] was 100 % of control; the T/C under setting [6] was 103 % of control; the T/C under setting [10] was 87 % of control; the T/C under setting [11] was 106 % of control. Moreover, the T/C (endpoint: survival time, mean or median, dose: 100.0 mg/kg/injection, schedule: Q01DX Z (ip), vehicle: water) is 97 % of control.

Take `OCC1OC(n2cnc3c(=S)nc[nH]c32)C(O)C1O` (configuration not stated): the T/C runs as follows: under setting [13], 94 % of control; (endpoint: survival time, mean or median, dose: 31.0 mg/kg/injection, schedule: Q01DX Z (ip), vehicle: carboxymethylcellulose (CMC)) 94 % of control; under setting [14], 109 % of control; under setting [8], 97 % of control; (endpoint: survival time, mean or median, dose: 250.0 mg/kg/injection, schedule: Q01DX Z (ip), vehicle: carboxymethylcellulose (CMC)) 92 % of control.

Turning to `COc1cc(-c2ccc(Nc3ccccc3C(=O)O)c(OC)c2)ccc1Nc1ccccc1C(=O)O`, the T/C by setting is: under setting [9], 116 % of control; under setting [11], 155 % of control; under setting [12], 161 % of control.

As to `Nc1ncnc2c1ncn2C1OC(COCc2ccccc2)C(OCc2ccccc2)C1OCc1ccccc1` (configuration not stated), the T/C runs as follows: under setting [3], 94 % of control and 100 % of control; under setting [5], 111 % of control and 94 % of control; under setting [7], 105 % of control and 100 % of control; (endpoint: survival time, mean or median, dose: 80.0 mg/kg/injection, schedule: Q01DX010 (ip), vehicle: saline) 94 % of control.

On to `O=CCC(O)C(O)C(O)CO` (configuration not stated), for which the T/C was 120 % of control under setting [13]; 113 % of control under setting [14]; 120 % of control under setting [8]; 90 % of control and 100 % of control (endpoint: survival time, mean or median, dose: 250.0 mg/kg/injection, schedule: Q01DX010 (ip), vehicle: saline); 100 % of control (endpoint: survival time, mean or median, dose: 500.0 mg/kg/injection, schedule: Q01DX010 (ip), vehicle: saline).
